Results from the CheMixHub viscosity set.

Test: xn = mol fraction of the nth substance listed

C[C@@H](O)[C@H](N)C(=O)O + O
101 kPa
Settings | viscosity [mPa·s]
293.15 K, x1 = 0.001804 | 1.036
293.15 K, x1 = 0.0107 | 1.226
298.15 K, x1 = 8.95e-05 | 0.9002
298.15 K, x1 = 0.0001801 | 0.9048
298.15 K, x1 = 0.001819 | 0.9278
298.15 K, x1 = 0.003526 | 0.9547
298.15 K, x1 = 0.005296 | 0.9865
298.15 K, x1 = 0.007341 | 1.02
298.15 K, x1 = 0.008519 | 1.047
298.15 K, x1 = 0.01104 | 1.075
298.15 K, x1 = 0.01269 | 1.105
298.15 K, x1 = 0.01399 | 1.136
303.15 K, x1 = 0.007153 | 0.904
303.15 K, x1 = 0.01245 | 0.9968
305.15 K, x1 = 0.00036 | 0.788
305.15 K, x1 = 0.0007203 | 0.7937
305.15 K, x1 = 0.00108 | 0.7998
305.15 K, x1 = 0.001439 | 0.8055
305.15 K, x1 = 0.001798 | 0.8106
305.15 K, x1 = 0.002157 | 0.8163
308.15 K, x1 = 8.95e-05 | 0.7885
308.15 K, x1 = 0.0001801 | 0.7945
308.15 K, x1 = 0.001819 | 0.8025
308.15 K, x1 = 0.003526 | 0.8241
308.15 K, x1 = 0.005296 | 0.8417
308.15 K, x1 = 0.007341 | 0.8612
308.15 K, x1 = 0.008519 | 0.8741
308.15 K, x1 = 0.01104 | 0.9001
308.15 K, x1 = 0.01269 | 0.9289
308.15 K, x1 = 0.01399 | 0.9456
310.15 K, x1 = 0.00036 | 0.707
310.15 K, x1 = 0.0007203 | 0.7122
310.15 K, x1 = 0.00108 | 0.7174
310.15 K, x1 = 0.001439 | 0.7223
310.15 K, x1 = 0.001798 | 0.7263
310.15 K, x1 = 0.002157 | 0.7313
313.15 K, x1 = 0.008929 | 0.758
313.15 K, x1 = 0.0107 | 0.7828
313.15 K, x1 = 0.01245 | 0.8054
315.15 K, x1 = 0.00036 | 0.6527
315.15 K, x1 = 0.0007203 | 0.6576
315.15 K, x1 = 0.00108 | 0.6612
315.15 K, x1 = 0.001439 | 0.6656
315.15 K, x1 = 0.001798 | 0.6694
315.15 K, x1 = 0.002157 | 0.6737
318.15 K, x1 = 8.95e-05 | 0.6814
318.15 K, x1 = 0.0001801 | 0.6945
318.15 K, x1 = 0.001819 | 0.7042
318.15 K, x1 = 0.003526 | 0.7214
318.15 K, x1 = 0.005296 | 0.7356
318.15 K, x1 = 0.007341 | 0.7565
318.15 K, x1 = 0.008519 | 0.7645
318.15 K, x1 = 0.01104 | 0.7898
318.15 K, x1 = 0.01269 | 0.8045
318.15 K, x1 = 0.01399 | 0.8214
323.15 K, x1 = 0.00359 | 0.5782
323.15 K, x1 = 0.007153 | 0.6118

C=Cc1ccccc1 + CCCCCC
viscosity [mPa·s], 101.33 kPa
Settings | x1 = 0.1019 | x1 = 0.1987 | x1 = 0.3024 | x1 = 0.4003 | x1 = 0.4992 | x1 = 0.6023 | x1 = 0.7055 | x1 = 0.8021 | x1 = 0.8935
298.15 K | 0.314 | 0.334 | 0.362 | 0.385 | 0.417 | 0.457 | 0.507 | 0.566 | 0.632
303.15 K | 0.302 | 0.319 | 0.346 | 0.367 | 0.397 | 0.436 | 0.482 | 0.534 | 0.597
308.15 K | 0.29 | 0.305 | 0.328 | 0.351 | 0.379 | 0.412 | 0.455 | 0.505 | 0.56
